Laboratory results: ChEMBL document CHEMBL1136816, “Synthesis and evaluation of ether and halogenated derivatives of mannopeptimycin glycopeptide antibiotics” (2003)
Converted amounts (≈) assume the structure as drawn.

What was measured:
Type in all cases: functional
Streptococcus sp. [1] = assay: In vitro minimum inhibitory concentration against Streptococcus species
Enterococcus sp. [2] = assay: In vitro minimum inhibitory concentration against Enterococcus species; 1-2
Staphylococcus aureus [3] = assay: In vitro minimum inhibitory concentration against Staphylococcus aureus; 0.25-1
Staphylococcus aureus [4] = assay: In vitro minimum inhibitory concentration against Staphylococcus aureus; 2-4
Streptococcus sp. [5] = assay: In vitro minimum inhibitory concentration against Streptococcus species; </=0.06-0.25
Enterococcus sp. [6] = assay: In vitro minimum inhibitory concentration against Enterococcus species; 2-4
Enterococcus sp. [7] = assay: In vitro minimum inhibitory concentration against Enterococcus species; 0.25->64
Streptococcus sp. [8] = assay: In vitro minimum inhibitory concentration against Streptococcus species; </=0.06-1
Staphylococcus aureus [9] = assay: In vitro minimum inhibitory concentration against Staphylococcus aureus; 0.5->64
Enterococcus sp. [10] = assay: In vitro minimum inhibitory concentration against Enterococcus species; 1-4
Staphylococcus aureus [11] = assay: In vitro minimum inhibitory concentration against Staphylococcus aureus; 1-2
Enterococcus sp. [12] = assay: In vitro minimum inhibitory concentration against Enterococcus species; 4-64
Streptococcus sp. [13] = assay: In vitro minimum inhibitory concentration against Streptococcus species; 0.5-4
Staphylococcus aureus [14] = assay: In vitro minimum inhibitory concentration against Staphylococcus aureus; 1-8

COc1ccc2cc(CO[C@H]3[C@H](O)[C@H](O)[C@@H](O[C@H]4[C@H](O)[C@H](O)[C@@H](Oc5ccc(C[C@H]6NC(=O)[C@H]([C@@H](C)c7ccccc7)NC(=O)CNC(=O)[C@H](CO)NC(=O)[C@@H]([C@@H](O)[C@@H]7CN=C(N)N7[C@H]7O[C@H](CO)[C@@H](O)[C@H](O)[C@@H]7O)NC(=O)[C@H]([C@@H](O)[C@@H]7CN=C(N)N7)NC6=O)cc5)O[C@@H]4CO)O[C@@H]3CO)ccc2c1
MIC (Streptococcus sp. [1]): ≤ 0.06 µg/mL | MIC (Enterococcus sp. [2]): 1 µg/mL (≈ 0.682 µM) | MIC (Staphylococcus aureus [3]): 0.25 µg/mL (≈ 0.171 µM)

COc1ccc(COC[C@H]2O[C@H](O[C@H]3[C@H](O)[C@H](O)[C@@H](Oc4ccc(C[C@H]5NC(=O)[C@H]([C@@H](C)c6ccccc6)NC(=O)CNC(=O)[C@H](CO)NC(=O)[C@@H]([C@@H](O)[C@@H]6CN=C(N)N6[C@H]6O[C@H](CO)[C@@H](O)[C@H](O)[C@@H]6O)NC(=O)[C@H]([C@@H](O)[C@@H]6CN=C(N)N6)NC5=O)cc4)O[C@@H]3CO)[C@@H](O)[C@@H](O)[C@@H]2O)cc1OCc1ccccc1
MIC (Staphylococcus aureus [4]): 2 µg/mL (≈ 1.31 µM) | MIC (Streptococcus sp. [5]): ≤ 0.06 µg/mL | MIC (Enterococcus sp. [6]): 2 µg/mL (≈ 1.31 µM)

CCN1CCN(C(=O)N[C@@H](C(=O)N[C@@H]2C(=O)N3[C@@H]2SC(C)(C)[C@@H]3C(=O)O)c2ccccc2)C(=O)C1=O [PIPERACILLIN]
MIC (Enterococcus sp. [7]): 0.25 µg/mL (≈ 0.483 µM) | MIC (Streptococcus sp. [8]): ≤ 0.06 µg/mL | MIC (Staphylococcus aureus [9]): 0.5 µg/mL (≈ 0.966 µM)

C[C@@H](c1ccccc1)[C@@H]1NC(=O)CNC(=O)[C@H](CO)NC(=O)[C@@H]([C@@H](O)[C@@H]2CN=C(N)N2[C@H]2O[C@H](CO)[C@@H](O)[C@H](O)[C@@H]2O)NC(=O)[C@H]([C@@H](O)[C@@H]2CN=C(N)N2)NC(=O)[C@@H](Cc2ccc(O[C@H]3O[C@H](CO)[C@@H](O[C@H]4O[C@H](COCc5ccc(OCc6ccccc6)cc5)[C@@H](O)[C@H](O)[C@@H]4O)[C@H](O)[C@@H]3O)cc2)NC1=O
MIC (Streptococcus sp. [1]): ≤ 0.06 µg/mL | MIC (Enterococcus sp. [10]): 1 µg/mL (≈ 0.67 µM) | MIC (Staphylococcus aureus [11]): 1 µg/mL (≈ 0.67 µM)

C[C@@H](c1ccccc1)[C@@H]1NC(=O)CNC(=O)[C@H](CO)NC(=O)[C@@H]([C@@H](O)[C@@H]2CN=C(N)N2[C@H]2O[C@H](CO)[C@@H](O)[C@H](O)[C@@H]2O)NC(=O)[C@H]([C@@H](O)[C@@H]2CN=C(N)N2)NC(=O)[C@@H](Cc2ccc(O[C@H]3O[C@H](CO)[C@@H](O[C@H]4O[C@H](COCc5cccs5)[C@@H](O)[C@H](O)[C@@H]4O)[C@H](O)[C@@H]3O)cc2)NC1=O
MIC (Enterococcus sp. [12]): 4 µg/mL (≈ 2.87 µM) | MIC (Streptococcus sp. [13]): 0.5 µg/mL (≈ 0.359 µM) | MIC (Staphylococcus aureus [14]): 1 µg/mL (≈ 0.719 µM)
